The test system of experiment [1] is human CD1d-restricted T cell clones. The experiment can be described thus: Flow cytometric staining with lipid treated multimerized CD1d-Fc aggregates. The settings on record: flow cytometry; human CD1d-Fc/Alexa 488 protein A aggregate, 40:1 lipid to fusion protein, compared with DMSO alone. In kind it is cell-based. Here is the method:
To facilitate binding to CD1 specific T cells for detection by flow cytometry, a highly multimerized form of the CD1d fusion protein was formed using fluorescently labeled protein A molecules. Protein A molecules spontaneously associate in solution at neutral pH with immunoglobulin Fc regions, forming complexes containing four Fc molecules and two protein A molecules (4+2 complexes, reference 2). The human CD1d-Fc fusion protein was incubated with Alexa 488 dye labeled protein A, and the 4+2 complexes purified by size exclusion chromatography on a Pharmacia Superose 6 column using PBS pH 7.2 as a running buffer. The purified 4+2 aggregates were concentrated to 100 μg/ml with ovalbumin as a carrier protein. The CD1d-Fc aggregate was then pre-incubated for 24 to 48 hours at 37° C. with antigenic glycolipids dissolved in DMSO at a 40:1 molar ratio of lipid to fusion protein, or with an equivalent volume of DMSO alone as a negative control. The T cell staining was performed at room temperature or 4° C. for 20 min, at a concentration of 40 μg/ml of the lipid or control treated CD1d-Fc aggregate.
To facilitate binding to CD1 specific T cells for detection by flow cytometry, a highly multimerized form of the CD1d fusion protein is formed using fluorescently labeled protein A molecules. Protein A molecules spontaneously associate in solution at neutral pH with immunoglobulin Fc regions, forming complexes containing four Fc molecules and two protein A molecules (4+2 complexes, Langone, J.J. et al, Molec. and Cell. Biochem, 65(2):159-70 (1985)). The human CD1d-Fc fusion protein was incubated with Alexa 488-dye labeled protein A, and the 4+2 complexes purified by size exclusion chromatography on a Phannacia Superose 6 column using PBS pH 7.2 as a running buffer. The purified 4+2 aggregates are concentrated to 100 μg/ml with ovalbumin as a carrier protein. The CD1d-Fc aggregate is then pre-incubated for 24 to 48 hours at 37° C. with antigenic glycolipids dissolved in DMSO at a 40:1 molar ratio of lipid to fusion protein, or with an equivalent volume of DMSO alone as a negative control. The T cell staining is performed at room temperature or 4° C. for 20 min, at a concentration of 40 μg/ml of the lipid or control treated CD1d-Fc aggregate.
Flow cytometric analysis of a CD1d-restricted T cell clone stained with the multimerized CD1d-Fc fusion protein (abbreviated as “hd(8)-fl”) was performed as follows. Staining with CD1d-Fc treated with lipid antigens dissolved in DMSO was compared with CD1d-Fc treated with DMSO alone as a negative control. The specific lipid antigen used were: aGalCer is α-galactosyl ceramide (KRN7000); aGlcCer is α-glucosyl ceramide; aManCer is α-mannosyl ceramide; bGalCer is β-galactosyl ceramide; Cer is ceramide (acylphytosphingolipid).
Flow cytometric analysis of a series of human T cell clones stained with the multimerized CD1d-Fc fusion protein, treated with α-GalCer or DMSO alone also was performed, including staining of two different CD1d-restricted (“NKT”) T cell clones DN2.B9 and DN1.10B3. Four other T cell clones that are not CD1d-restricted also were stained.

The next experiment deals with 24.8.A hybridoma. The experiment can be described thus: Plate-bound mCD1d fusion protein hybridoma stimulation assay (IL-2 ELISA). The experiment is classed as cell-based, mouse. The settings on record: for IL-2 secretion: 24.8 A NKT hybridoma, plate-bound mCD1d-IgGFc2a fusion protein preincubated with lipid antigen. The essentials:
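Protein A plates were loaded with 400-600 ng/well mCD1d fusion protein, then given lipid antigen (40:1 molar ratio to fusion protein unless specified) in PBS pH 7.2 for 24-48 h at 37 °C. After washing, 1×10^5 hybridoma cells/well were added for 16-20 h at 37 °C. Secreted IL-2 measured by sandwich ELISA against a murine IL-2 standard curve.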
(An ELISA detects its analyte on a solid surface through an enzyme-linked reagent.)

The subject of the next experiment is KT/22 hybridoma. Described as above. In kind it is cell-based, mouse. The settings on record: KT/22 NKT hybridoma; plate-bound mCD1d-IgGFc2a fusion protein preincubated with lipid antigen. The method, boiled down:
(§1)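 IL-2 (pg/ml) by sandwich ELISA, regressed on a murine IL-2 standard curve, reports stimulation of hybridomas (1×10^5/well, 16-20 hr, 37° C) on immobilized mCD1d fusion protein pre-pulsed with lipid, 40:1 molar ratio by default, 24-48 hr at 37° C.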

The next experiment deals with 14S.6.A hybridoma. Described as above. In kind it is cell-based, mouse. The settings on record: 14S.6.A diverse TCR hybridoma; plate-bound mCD1d-IgGFc2a fusion protein preincubated with lipid antigen. The essentials:
as §1

The subject of the next experiment is KT/7 hybridoma. Described as above. In kind it is cell-based, mouse. The settings on record: KT/7 NKT hybridoma; plate-bound mCD1d-IgGFc2a fusion protein preincubated with lipid antigen. The essentials:
as §1

In a further experiment the test system is XV104 hybridoma. The description is as above. The settings on record: XV104 diverse TCR hybridoma; plate-bound mCD1d-IgGFc2a fusion protein preincubated with lipid antigen. In kind it is cell-based, mouse. The essentials:
as §1

For the next experiment, the system named is KT/23 hybridoma. Described as above. The settings on record: KT/23 NKT hybridoma; plate-bound mCD1d-IgGFc2a fusion protein preincubated with lipid antigen. In kind it is cell-based, mouse. The method, boiled down: as §1
The subject of the next experiment is 24.9.E hybridoma. The experiment is described as above. The settings on record: 24.9 E NKT hybridoma; plate-bound mCD1d-IgGFc2a fusion protein preincubated with lipid antigen. The experiment is classed as cell-based, mouse. The method, boiled down:
as §1

The test system of the next experiment is 14S.7.N hybridoma. Described as above. In kind it is cell-based, mouse. The settings on record: 14S.7.N diverse TCR hybridoma; plate-bound mCD1d-IgGFc2a fusion protein preincubated with lipid antigen. The essentials: as §1
For the next experiment, the system named is VII68 hybridoma. The description is as above. In kind it is cell-based, mouse. The conditions noted are these: VII68 diverse TCR hybridoma; plate-bound mCD1d-IgGFc2a fusion protein preincubated with lipid antigen. The essentials: as §1
The next experiment deals with VIII24 hybridoma. The description is as above. The settings on record: VIII24 diverse TCR hybridoma; plate-bound mCD1d-IgGFc2a fusion protein preincubated with lipid antigen. The experiment is classed as cell-based, mouse. The method, boiled down: as §1
The test system of a further experiment is 24.7.C hybridoma. The experiment is described as above. The conditions noted are these: 24 7.C NKT hybridoma; plate-bound mCD1d-IgGFc2a fusion protein preincubated with lipid antigen. In kind it is cell-based, mouse. The method, boiled down: as §1
A further experiment deals with XV19 hybridoma. The description is as above. The experiment is classed as cell-based, mouse. The conditions noted are these: XV19 diverse TCR hybridoma; plate-bound mCD1d-IgGFc2a fusion protein preincubated with lipid antigen. The method, boiled down: as §1
Another experiment has as its system Vβ/9 hybridoma. The description is as above. In kind it is cell-based, mouse. The settings on record: Vβ/9 NKT hybridoma; plate-bound mCD1d-IgGFc2a fusion protein preincubated with lipid antigen. The method, boiled down: as §1
The test system of the next experiment is KT/12 hybridoma. Described as above. In kind it is cell-based, mouse. The settings on record: KT/12 NKT hybridoma; plate-bound mCD1d-IgGFc2a fusion protein preincubated with lipid antigen. The method, boiled down: as §1
For another experiment, the system named is 14S.10.C hybridoma. The experiment is described as above. The experiment is classed as cell-based, mouse. The conditions noted are these: 14S.10 C diverse TCR hybridoma; plate-bound mCD1d-IgGFc2a fusion protein preincubated with lipid antigen. The essentials: as §1
Another experiment deals with 14S.15.A hybridoma. The experiment is described as above. The conditions noted are these: 14S.15.A diverse TCR hybridoma; plate-bound mCD1d-IgGFc2a fusion protein preincubated with lipid antigen. The experiment is classed as cell-based, mouse. The essentials:
as §1

The next experiment has as its system DN32D3 hybridoma. The experiment is described as above. In kind it is cell-based, mouse. The settings on record: DN32D3 NKT hybridoma; plate-bound mCD1d-IgGFc2a fusion protein preincubated with lipid antigen. The method, boiled down: as §1

With α-glucosyl ceramide [α-GlcCer], the “staining of CD1d-restricted T cell clones by lipid treated CD1d-Fc aggregate” value in [1] is “positive staining”.

disialoganglioside [GD1a]: the IL-2 secretion in the experiment on 24.8.A hybridoma, in the experiment on KT/22 hybridoma, in the experiment on 14S.6.A hybridoma, in the experiment on KT/7 hybridoma, in the experiment on XV104 hybridoma and in the experiment on KT/23 hybridoma was 0 (A “0” indicates a mean of less than 50 pg/ml IL-2 was secreted) in each case. Besides, the IL-2 secretion in the experiment on 24.9.E hybridoma, with 14S.7.N hybridoma, in the experiment on VII68 hybridoma, with VIII24 hybridoma, in the experiment on 24.7.C hybridoma and in the experiment with XV19 hybridoma was 0 (A “0” indicates a mean of less than 50 pg/ml IL-2 was secreted) throughout. Besides, the IL-2 secretion in the experiment with Vβ/9 hybridoma, with KT/12 hybridoma, in the experiment with 14S.10.C hybridoma, in the experiment with 14S.15.A hybridoma and with DN32D3 hybridoma was 0 (A “0” indicates a mean of less than 50 pg/ml IL-2 was secreted) in each case.

Turning to phosphatidylserine [PS], the “IL-2 response to mCD1d fusion protein pre-treated with purified or synthetic lipid” value in the experiment with 24.8.A hybridoma (24.8.A hybridoma, compared to untreated or buffer treated fusion protein) is reported as “did not reproducibly significantly enhance reactivity”. The IL-2 secretion result with 24.8.A hybridoma is on record as “+ (“+” indicates 50-250 pg/ml)”; with KT/22 hybridoma, 0 (A “0” indicates a mean of less than 50 pg/ml IL-2 was secreted); in the experiment with 14S.6.A hybridoma, 0 (A “0” indicates a mean of less than 50 pg/ml IL-2 was secreted); with KT/7 hybridoma it was 0 (A “0” indicates a mean of less than 50 pg/ml IL-2 was secreted); in the experiment with XV104 hybridoma, 0 (A “0” indicates a mean of less than 50 pg/ml IL-2 was secreted); in the experiment with KT/23 hybridoma it was 0 (A “0” indicates a mean of less than 50 pg/ml IL-2 was secreted). Moreover, the IL-2 secretion in the experiment on 24.9.E hybridoma, with 14S.7.N hybridoma, in the experiment with VII68 hybridoma, in the experiment on VIII24 hybridoma, in the experiment on 24.7.C hybridoma and with XV19 hybridoma was 0 (A “0” indicates a mean of less than 50 pg/ml IL-2 was secreted) each time. For the same substance, the IL-2 secretion with Vβ/9 hybridoma, with KT/12 hybridoma, in the experiment with 14S.10.C hybridoma, with 14S.15.A hybridoma and in the experiment on DN32D3 hybridoma was 0 (A “0” indicates a mean of less than 50 pg/ml IL-2 was secreted) each time.

Consider sphingomyelin, for which the IL-2 secretion result in the experiment on 24.8.A hybridoma was “+ (“+” indicates 50-250 pg/ml)”; with KT/22 hybridoma, 0 (A “0” indicates a mean of less than 50 pg/ml IL-2 was secreted); in the experiment with 14S.6.A hybridoma, 0 (A “0” indicates a mean of less than 50 pg/ml IL-2 was secreted); in the experiment with KT/7 hybridoma, 0 (A “0” indicates a mean of less than 50 pg/ml IL-2 was secreted); in the experiment on XV104 hybridoma, 0 (A “0” indicates a mean of less than 50 pg/ml IL-2 was secreted); with KT/23 hybridoma, 0 (A “0” indicates a mean of less than 50 pg/ml IL-2 was secreted). In addition, the IL-2 secretion in the experiment with 24.9.E hybridoma, in the experiment on 14S.7.N hybridoma, in the experiment with VII68 hybridoma, in the experiment with VIII24 hybridoma, in the experiment on 24.7.C hybridoma and in the experiment on XV19 hybridoma was 0 (A “0” indicates a mean of less than 50 pg/ml IL-2 was secreted) in each case. The IL-2 secretion is reported as 0 (A “0” indicates a mean of less than 50 pg/ml IL-2 was secreted) in the experiment on Vβ/9 hybridoma; 0 (A “0” indicates a mean of less than 50 pg/ml IL-2 was secreted) in the experiment with KT/12 hybridoma; 0 (A “0” indicates a mean of less than 50 pg/ml IL-2 was secreted) in the experiment with 14S.10.C hybridoma; “+ (“+” indicates 50-250 pg/ml)” in the experiment on 14S.15.A hybridoma; 0 (A “0” indicates a mean of less than 50 pg/ml IL-2 was secreted) in the experiment on DN32D3 hybridoma.

Source of the values: patent US20020071842A1, “Soluble CD1 compositions and uses thereof” (priority 2000, published 2002).
